Data taken from US11505586B2, “Interaction of Draxin and γ-netrins” (Max-Planck-Gesellschaft zur Foerderung der Wissenschaften …, priority 2014, dated 2022).
pKd: −log10 of the molar value. Blank lines part the entries; values can stand above or below the substance they belong to.

How the values were obtained:
Netrin-1 = molecular target: T1, Netrin-1 (Homo sapiens, UniProt O95631); experiment: AVEXIS pairwise binding screen, human proteins; conditions: both bait/prey orientations
T1 construct: made in house; host or cells: HEK293-6E (general AVEXIS method)
Description: (§1) AVEXIS was used to test pairwise binding events in both bait/prey orientations between human DRAXIN, the derived 21 amino acid peptide, human Netrin family members, and two representative Netrin receptors (DCC, UNC5B). The Matn4-bait served as an internal prey-protein control and was used for normalization of the A486 nm values; conditioned medium (CM) serves as negative control; n=3.
(§2) To determine the binding specificity of DRAXIN/Netrin interactions, we carried out a pairwise binding screen between human DRAXIN and human Netrin family members. Except Netrin-5, we included all human Netrin family members consisting of two secreted γ-Netrins (Netrin-1 and Netrin-3) and one secreted (Netrin-4) and two GPI-linked β-Netrins (Netrin-G1 and Netrin-G2) in our binding study. Human DRAXIN and a 21 amino acid Netrin binding fragment derived thereof (SEQ ID NO.: 1) bound to Netrin-1 and Netrin-3 but not to human β-Netrin family members (FIG. 13).

Netrin-3 = molecular target: T2, Netrin-3 (Homo sapiens, UniProt O00634); experiment: AVEXIS pairwise binding screen, human proteins; conditions: both bait/prey orientations
T2 construct: made in house; host or cells: HEK293-6E (general AVEXIS method)
T2 sequence (O00634 28-580): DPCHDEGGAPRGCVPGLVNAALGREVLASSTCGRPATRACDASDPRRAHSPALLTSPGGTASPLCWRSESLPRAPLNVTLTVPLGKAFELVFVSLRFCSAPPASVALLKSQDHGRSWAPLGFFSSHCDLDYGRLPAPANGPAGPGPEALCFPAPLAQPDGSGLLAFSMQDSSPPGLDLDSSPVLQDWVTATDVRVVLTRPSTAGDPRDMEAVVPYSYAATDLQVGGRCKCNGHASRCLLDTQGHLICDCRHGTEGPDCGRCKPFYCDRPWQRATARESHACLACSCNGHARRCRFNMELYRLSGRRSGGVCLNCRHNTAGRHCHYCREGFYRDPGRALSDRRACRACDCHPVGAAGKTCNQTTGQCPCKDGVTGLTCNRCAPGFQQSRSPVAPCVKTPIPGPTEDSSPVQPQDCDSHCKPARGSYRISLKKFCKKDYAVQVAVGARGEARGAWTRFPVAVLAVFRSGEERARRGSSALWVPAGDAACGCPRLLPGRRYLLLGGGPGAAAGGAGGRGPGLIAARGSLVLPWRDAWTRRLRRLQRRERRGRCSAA
Description: as §1, §2

[1] = test system: human β-Netrin family members; experiment: AVEXIS pairwise binding screen, human proteins; conditions: Netrin-4, Netrin-G1, Netrin-G2
Description: as §1, §2

Netrin1a [2] = experiment: AVEXIS extracellular protein-protein interaction screen; type: binding, zebrafish; conditions: prey against 141 bait proteins, bait against 191 prey proteins
Description: To detect extracellular protein-protein interactions in a high-throughput manner we used the AVEXIS assay as described in Bushell et al. (Bushell et al., 2008) with minor modifications.
In brief: A zebrafish protein library enriched for mainly in neuronal tissues expressed secreted proteins and extracellular domains of cell surface proteins has been assembled. The library consists of prey and bait proteins. Preys are composed of the extracellular domain (ECD) of interest followed by a CD4 tag (rat Cd4d3+4) and a pentamerization domain derived from the rat Comp protein followed by β-lactamase. For the bait proteins the ECDs are fused to a CD4 tag and a biotinylation peptide. […] The proteins in the supernatants have been quantified and normalized.
The bait proteins have been immobilized on streptavidin coated 96 well microtiter plates (one bait/well) and incubated for 1 hour at room temperature. […] Then the absorbance at 486 nm of each well has been measured using a μQuant spectrophotometer (BIO-TEK Instruments, INC). […]
In the primary screen interactions were ‘called’ if the absorbance (at 486 nm) of a well after 1 h of incubation was ≥0.1 and 3 Sigma above the standard deviations of the mean of all wells. All interactions detected in the primary screen have been retested in a validation screen by using independently produced batches of proteins.

Netrin1a [3] = experiment: AVEXIS domain mapping with monomeric prey proteins; type: binding, zebrafish; conditions: monomeric preys
Procedure: For the binding interface mapping experiments we used monomeric prey proteins. The concentration of the monomeric preys has been determined as described for the AVEXIS assay (β ? lactamase enzymatic activity). […] Both prey and bait orientations were tested in the domain mapping screen and two repeats for each orientation had been carried out.
To map down the Netrin1a binding region in DraxinA we generated a series of DraxinA truncations and deletions and tested them for binding against Netrin1a (FIG. 4).

Islr2 = experiment: Vasn/Islr2 interaction used to adjust the AVEXIS screen; type: binding; conditions: Vasn (Slit-like2)/Islr2, in preparation
Procedure: The bait proteins have been immobilized on streptavidin coated 96 well microtiter plates (one bait/well) and incubated for 1 hour at room temperature. After 3 wash steps using HBS as wash buffer the baits have been probed by 50 μl of normalized prey proteins. After one-hour incubation the non-bound preys have been washed away by 2 washes with HBST (0.05% Tween) followed by two HBS washes. Then 50 μl of nitrocefin/well (0.1 mg/ml) has been added and incubated for 1 h at room temperature. Then the absorbance at 486 nm of each well has been measured using a μQuant spectrophotometer (BIO-TEK Instruments, INC). As a positive control for the prey proteins we used the Matn4 ECD as mono-biotinylated bait protein.

binding to Netrin-1 (Netrin-1): bound
binding to Netrin-3 (Netrin-3): bound
binding to human β-Netrin family members [1]: not
Substance: EVMPTLDMALFDWTDYEDLKP (listed as Homo sapiens) [SEQ ID NO.: 1]

Substance: EVMPTLDMTLFDWTDYEDMKP (Danio rerio) [21aa DraxinA derived peptide, 21aa fragment (aa232-252) of zebrafish DraxinA, as AVEXIS prey or bait]
binding specificity against protein library (Netrin1a [2]; listed as DraxinAaa232-252-bait): only interacted with the Ntn1a-prey
binding specificity against protein library (Netrin1a [2]; listed as DraxinAaa232-252-prey): only bound to the Ntn1a-bait
binding of DraxinA truncations and deletions to Netrin1a (Netrin1a [3]): sufficient for the binding

pKd (Islr2): 4.92
Substance: Vasn: Vasn (Slit-like2), binding partner of Islr2, reference weak interaction
